# Measured values published in article PMC11149917, “Translational and Therapeutic Evaluation of RAS-GTP Inhibition by RMC-6236 in RAS-Driven Cancers” (Cancer Discovery, 2024).
# Like-named read-outs stand apart in the source and are kept apart here.
# How the values were obtained:
# [1] = tested on: panel of 78 cancer cell lines; assay: Cell panel 3D methylcellulose CellTiter-Glo proliferation; format: cell-based; conditions: Homo sapiens
# Method: A panel of 78 cancer cell lines harboring mutant and wild-type RAS was selected for screening at Crown Bioscience (Supplementary Table S2). The panel consisted of cell lines with any substitution at position 12 of KRAS, cell lines with any substitutions at position 61 of NRAS, and cell lines with a BRAF^V600E mutation. […] Cells were incubated for 120 hours prior to measurement of adenosine triphosphate (ATP) levels using the CellTiter-Glo Luminescent Cell Viability Assay (CTG; Promega, G7572), a method of determining the number of metabolically active cells based on quantitation of cellular ATP, according to the manufacturer's instructions. To measure induction of apoptosis, cells were incubated with RMC-6236 for 48 hours prior to measuring cleavage of a proluminescent caspase-3/7 DEVD-aminoluciferin substrate using the CaspaseGlo-3/7 Assay (Promega, G8092) according to the manufacturer’s instructions.
# [2] = tested on: CC3 in Capan-2 xenograft tumors; assay: IHC whole-slide quantification; format: in vivo, mouse; conditions: control 3.0
# Method: All tissues were fixed for up to 24 hours using 10% neutral buffered formalin and then moved to 70% ethanol for long-term storage. FFPE sections (4 µm) were stained on the Biocare intelliPATH automated staining platform using the manufacturer’s recommended settings.
# All tissue sections were incubated with Biocare Peroxidase Blocker (Biocare, cat no. PX968) and Background Punisher (Biocare, cat no. BP974M) to block nonspecific background. MACH4 HRP-polymer Detection System (Biocare, cat no. MRH534) was used to detect rabbit primary antibodies.
# DAB-stained slides were scanned and digitized with a Huron TissueScope LE120 whole-slide scanner at 200× magnification.
# The EpCAM staining was used to identify epithelial cells. First, the area to be analyzed was delineated, excluding necrotic regions. The random forest tumor classifier from the HALO Image Analysis package was used to identify the tumor compartment. Three classes were created: glass, tumor (EpCAM-positive), and stroma. The tumor class mark was then copied onto the serial sections stained with various markers to perform the image analysis only on the tumor compartment.
smiles,measurement,setting,value
CCn1c(-c2cc(N3CCN(C)CC3)cnc2[C@H](C)OC)c2c3cc(ccc31)-c1csc(n1)C[C@H](NC(=O)[C@H]1C[C@@H]1C)C(=O)N1CCC[C@H](N1)C(=O)OCC(C)(C)C2 [RMC-6236],EC50,"[1]; NCI-H727, NCIH727, KRAS G12V, Lung, read-out: Proliferation Inhibition (EC50)",4.2 nM
same,EC50,"[1]; NCI-H1299, NCIH1299, NRAS Q61K, Lung, read-out: Proliferation Inhibition (EC50)",26.3 nM
same,EC50,"[1]; NCI-H1373, NCIH1373, KRAS G12C, Lung, read-out: Proliferation Inhibition (EC50)",5.2 nM
same,EC50,"[1]; NCI-H1792, NCIH1792, KRAS G12C, Lung, read-out: Proliferation Inhibition (EC50)",7.4 nM
same,EC50,"[1]; NCI-H2009, NCIH2009, KRAS G12A, Lung, read-out: Proliferation Inhibition (EC50)",19.3 nM
same,EC50,"[1]; NCI-H2087, NCIH2087, NRAS Q61K, Lung, read-out: Proliferation Inhibition (EC50)",4 nM
same,EC50,"[1]; NCI-H2122, NCIH2122, KRAS G12C, Lung, read-out: Proliferation Inhibition (EC50)",6.7 nM
same,EC50,"[1]; NOZ, KRAS G12V, Liver/Bile duct, read-out: Proliferation Inhibition (EC50)",33.1 nM
same,EC50,"[1]; NRAS^Q61X cells, read-out: median EC50, cell growth inhibition",22 nM
same,EC50,"[1]; OVCAR-5, OVCAR5, KRAS G12V, Ovary, read-out: Proliferation Inhibition (EC50)",2 nM
same,EC50,"[1]; PANC-1, PANC1, KRAS G12D, Pancreas, read-out: Proliferation Inhibition (EC50)",1.4 nM
same,EC50,"[1]; PANC-03-27, PANC0327, KRAS G12V, Pancreas, read-out: Proliferation Inhibition (EC50)",1 nM
same,EC50,"[1]; PL45, PL45, KRAS G12D, Pancreas, read-out: Proliferation Inhibition (EC50)",86.5 nM
same,EC50,"[1]; Panc 05.04, PANC0504, KRAS G12D, Pancreas, read-out: Proliferation Inhibition (EC50)",6.1 nM
same,EC50,"[1]; Panc1005, PANC1005, KRAS G12D, Pancreas, read-out: Proliferation Inhibition (EC50)",27.1 nM
same,EC50,"[1]; RBE, KRAS G12V, Liver/Bile duct, read-out: Proliferation Inhibition (EC50)",5.8 nM
same,EC50,"[1]; RKO*, BRAF V600E, Intestine/Large/Colorectum, read-out: Proliferation Inhibition (EC50)",> 100 nM
same,EC50,"[1]; SHP77, SHP77, KRAS G12V, Lung, read-out: Proliferation Inhibition (EC50)",> 100 nM
same,EC50,"[1]; SK-CO-1, SKCO1, KRAS G12V, Intestine/Large/Colorectum, read-out: Proliferation Inhibition (EC50)",3 nM
same,EC50,"[1]; SK-LU-1, SKLU1, KRAS G12D, Lung, read-out: Proliferation Inhibition (EC50)",6 nM
same,EC50,"[1]; SK-MEL-2, SKMEL2, NRAS Q61R, Skin, read-out: Proliferation Inhibition (EC50)",38.8 nM
same,EC50,"[1]; SK-N-AS, SKNAS, NRAS Q61K, Brain and Nerves, read-out: Proliferation Inhibition (EC50)",8.3 nM
same,EC50,"[1]; SK-N-SH, SKNSH, NRAS Q61K, Brain and Nerves, read-out: Proliferation Inhibition (EC50)",> 100 nM
same,EC50,"[1]; SNU1, SNU1, KRAS G12D, Stomach, read-out: Proliferation Inhibition (EC50)",13 nM
same,EC50,"[1]; SNU719, NRAS Q61L, Stomach, read-out: Proliferation Inhibition (EC50)",32.2 nM
same,EC50,"[1]; SNU-387, SNU387, NRAS Q61K, Liver, read-out: Proliferation Inhibition (EC50)",9.2 nM
same,EC50,"[1]; SNU-601, SNU601, KRAS G12D, Stomach, read-out: Proliferation Inhibition (EC50)",26.2 nM
same,EC50,"[1]; SNUC2A, KRAS G12D, Intestine/Large/Colorectum, read-out: Proliferation Inhibition (EC50)",> 100 nM
same,EC50,"[1]; SU.86.86, SU8686, KRAS G12D, Pancreas, read-out: Proliferation Inhibition (EC50)",20.2 nM
same,EC50,"[1]; SW480, SW480, KRAS G12V, Intestine/Large/Colorectum, read-out: Proliferation Inhibition (EC50)",5.1 nM
same,EC50,"[1]; SW626, SW626, KRAS G12V, Ovary, read-out: Proliferation Inhibition (EC50)",3.8 nM
same,EC50,"[1]; SW756, SW756, KRAS G12C, Ovary, read-out: Proliferation Inhibition (EC50)",26.9 nM
same,EC50,"[1]; SW837, SW837, KRAS G12C, Intestine/Large/Colorectum, read-out: Proliferation Inhibition (EC50)",18.8 nM
same,EC50,"[1]; SW900, SW900, KRAS G12V, Lung, read-out: Proliferation Inhibition (EC50)",3.1 nM
same,EC50,"[1]; SW 1116, SW1116, KRAS G12A, Intestine/Large/Colorectum, read-out: Proliferation Inhibition (EC50)",70.9 nM
same,EC50,"[1]; SW1271, SW1271, NRAS Q61R, Lung, read-out: Proliferation Inhibition (EC50)",4.6 nM
same,EC50,"[1]; SW1463, SW1463, KRAS G12C, Intestine/Large/Colorectum, read-out: Proliferation Inhibition (EC50)",20.4 nM
same,EC50,"[1]; SW1573, SW1573, KRAS G12C, Lung, read-out: Proliferation Inhibition (EC50)",> 100 nM
same,EC50,"[1]; SW1990, SW1990, KRAS G12D, Pancreas, read-out: Proliferation Inhibition (EC50)",6.7 nM
same,EC50,"[1]; SW-403, SW403, KRAS G12V, Intestine/Large/Colorectum, read-out: Proliferation Inhibition (EC50)",3.5 nM
same,EC50,"[1]; SW-620, SW620, KRAS G12V, Intestine/Large/Colorectum, read-out: Proliferation Inhibition (EC50)",2.7 nM
same,EC50,"[1]; UMUC3, UMUC3, KRAS G12C, Bladder, read-out: Proliferation Inhibition (EC50)",2.6 nM
same,EC50,"[1]; YCC2, KRAS G12S, Stomach, read-out: Proliferation Inhibition (EC50)",22.9 nM
same,EC50,"[1]; all three BRAF^V600E mutant cells, read-out: resistance to growth inhibition",> 100 nM
same,CC3 (% positive cells),"[2]; Capan-2 (25 mg/kg x 7d), 8h",7.0%
same,CC3 (% positive cells),"[2]; Capan-2 (25 mg/kg x 7d), 24h",5.0%
same,CC3 (% positive cells),"[2]; Capan-2 (25 mg/kg x 7d), 48hr",3.7%
same,CC3 (% positive cells),"[2]; Capan-2 (25 mg/kg), 8h",4.2%
same,CC3 (% positive cells),"[2]; Capan-2 (25 mg/kg), 24h",5.7%
same,CC3 (% positive cells),"[2]; Capan-2 (25 mg/kg), 48hr",6.7%
